Assay results: ChEMBL document CHEMBL1126901, “2-Thio derivatives of dUrd and 5-fluoro-dUrd and their 5'-monophosphates: synthesis, interaction with tumor thymidylate synthase, and in vitro antitumor activity” (J Med Chem, 1993)

Assays:
[1] = biological target: Thymidylate synthase (Mus musculus) (UniProt P07607)
Description: The reaction rate(Ki'') of compound was measured for inactivation of Ehrlich Carcinoma Thymidylate Synthases

[2] = biological target: Thymidylate synthase (Mus musculus) (UniProt P07607); remark: listed apart in the source
Description: The reaction rate(Ki'') of compound was measured for inactivation of L1210 Thymidylate Synthase

[3] = biological target: Thymidylate synthase (Mus musculus) (UniProt P07607); remark: listed apart in the source
Description: The reaction rate(Ki') of compound was measured for inactivation of L1210 Thymidylate Synthase

[4] = biological target: Thymidylate synthase (Mus musculus) (UniProt P07607); remark: listed apart in the source
Description: The time dependent reaction (k2'(1/min)) of compound was measured for inactivation of L1210 Thymidylate Synthase

Thymidylate synthase [5] = biological target: T1, Thymidylate synthase (Mus musculus, UniProt P07607); assay: Apparent Ki value was measured by competitive inhibition of Thymidylate Synthase from L1210 cells of mouse; type: cell-based
[6] = biological target: Thymidylate synthase (Mus musculus) (UniProt P07607); remark: listed apart in the source
Description: The time dependent reaction (k2''(1/min)) of compound was measured for inactivation of Ehrlich Carcinoma Thymidylate Synthase

[7] = biological target: Thymidylate synthase (Mus musculus) (UniProt P07607); remark: listed apart in the source
Description: The time dependent reaction (k2''(1/min)) of compound was measured for inactivation of Ehrlich Carcinoma Thymidylate Synthases

[8] = biological target: Thymidylate synthase (Mus musculus) (UniProt P07607); remark: listed apart in the source
Description: The reaction rate(Ki') of compound was measured for inactivation of Ehrlich Carcinoma Thymidylate Synthases

Thymidylate synthase [9] = biological target: T1, Thymidylate synthase; assay: Apparent Ki value was measured by competitive inhibition of Thymidylate Synthase from Ehrlich Carcinoma cells of mouse; type: cell-based
[10] = biological target: Thymidylate synthase (Mus musculus) (UniProt P07607); remark: listed apart in the source
Description: The time dependent reaction (k2''(1/min)) of compound was measured for inactivation of L1210 Thymidylate Synthase

[11] = biological target: Thymidylate synthase (Mus musculus) (UniProt P07607); remark: listed apart in the source
Description: The reaction rate(Ki') of compound was measured for inactivation of L1210 Thymidylate Synthases

[12] = biological target: Thymidylate synthase (Mus musculus) (UniProt P07607); remark: listed apart in the source
Description: The time dependent reaction (k2'(1/min)) of compound was measured for inactivation of Ehrlich Carcinoma Thymidylate Synthases

[13] = biological target: Thymidylate synthase (Mus musculus) (UniProt P07607); remark: listed apart in the source
Description: The time dependent reaction (k2''(1/min)) of compound was measured for inactivation of L1210 Thymidylate Synthases

[14] = biological target: Thymidylate synthase (Mus musculus) (UniProt P07607); remark: listed apart in the source
Description: The time dependent reaction (k2'(1/min)) of compound was measured for inactivation of L1210 Thymidylate Synthases

[15] = biological target: Thymidylate synthase (Mus musculus) (UniProt P07607); remark: listed apart in the source
Description: The reaction rate(Ki'') of compound was measured for inactivation of L1210 Thymidylate Synthases

L5178Y [16] = assay: Inhibitory concentration of compound was calculated on L5178Y cells by using clonal assay; type: functional, cell-based, Mus musculus
L5178Y [17] = assay: Inhibitory concentration of compound was calculated on L5178Y cells by [14C]Leu incorporation; type: functional, cell-based, Mus musculus
NIH3T3 [18] = assay: Inhibitory concentration of compound was calculated on 3T3 cells by [14C]Leu incorporation; type: functional, cell-based, Mus musculus
L5178Y [19] = assay: Inhibitory concentration of compound was calculated on L5178Y cells by using growth assay; type: functional, cell-based, Mus musculus
L5178Y [20] = assay: Inhibitory concentration of compound rwas calculated on L5178Y cells by [3H]Thd incorporation; type: functional, cell-based, Mus musculus
NIH3T3 [21] = assay: Inhibitory concentration of compound rwas calculated on 3T3 cells by [3H]Thd incorporation; type: functional, cell-based, Mus musculus
NIH3T3 [22] = assay: Inhibitory concentration of compound was calculated on 3T3 cells by using clonal assay; type: functional, cell-based, Mus musculus
NIH3T3 [23] = assay: Inhibitory concentration was calculated on 3T3 cells by using growth assay; type: functional, cell-based, Mus musculus

Sequence of Thymidylate synthase (Mus musculus) (P07607 whole entry, looked up): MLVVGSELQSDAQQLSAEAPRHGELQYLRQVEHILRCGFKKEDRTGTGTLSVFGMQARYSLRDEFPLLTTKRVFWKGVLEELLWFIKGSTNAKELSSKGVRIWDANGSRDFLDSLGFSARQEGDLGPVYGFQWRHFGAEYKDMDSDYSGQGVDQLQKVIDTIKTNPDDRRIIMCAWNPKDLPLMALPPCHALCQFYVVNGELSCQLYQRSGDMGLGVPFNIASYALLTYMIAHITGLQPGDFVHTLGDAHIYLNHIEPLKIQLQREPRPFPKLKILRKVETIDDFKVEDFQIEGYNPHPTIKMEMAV
T1 sequence (P07607 whole entry): as the sequence (P07607 whole entry, looked up) above

| SMILES | IC50 (L5178Y [16]; l5178y) [µM] | IC50 (L5178Y [17]; l5178y) [µM] | IC50 (L5178Y [20]; l5178y) [µM] | IC50 (L5178Y [16]; Mus musculus, L5178Y) [µM] | IC50 (L5178Y [17]; Mus musculus, L5178Y) [µM] | IC50 (L5178Y [20]; Mus musculus, L5178Y) [µM] | Ki'' [1] [µM] | k2' [7] [min⁻¹] | Ki' [8] [µM] | IC50 (NIH3T3 [18]; nih3t3) [µM] | IC50 (L5178Y [19]; l5178y) [µM] | IC50 (NIH3T3 [21]; nih3t3) [µM] | IC50 (NIH3T3 [22]; nih3t3) [µM] | IC50 (NIH3T3 [23]; nih3t3) [µM] | IC50 (NIH3T3 [18]; Mus musculus, NIH3T3) [µM] | IC50 (L5178Y [19]; Mus musculus, L5178Y) [µM] | IC50 (NIH3T3 [21]; Mus musculus, NIH3T3) [µM] | IC50 (NIH3T3 [22]; Mus musculus, NIH3T3) [µM] | IC50 (NIH3T3 [23]; Mus musculus, NIH3T3) [µM] | further results |
| --- | --- | --- | --- | --- | --- | --- | --- | --- | --- | --- | --- | --- | --- | --- | --- | --- | --- | --- | --- | --- |
| O=c1[nH]c(=S)n(C2C[C@@H](OP(=O)(O)O)[C@@H](COP(=O)(O)O)O2)cc1F (stereo not given in full) | – | – | – | – | – | – | 0.049 | 0.36 | 0.079 | – | – | – | – | – | – | – | – | – | – | Ki'' [2]: 0.046 µM; Ki' [3]: 0.041 µM; k2' [4]: 0.12 min⁻¹; Ki (Thymidylate synthase [5]): 0.07 µM; k2'' [6]: 0.06 min⁻¹; Ki (Thymidylate synthase [9]): 0.14 µM; k2'' [10]: 0.02 min⁻¹ |
| O=c1[nH]c(=O)n([C@H]2C[C@H](O)[C@@H](COP(=O)(O)O)O2)cc1F | – | – | – | – | – | – | 0.071 | 0.18 | 0.0055 | – | – | – | – | – | – | – | – | – | – | Ki' [11]: 0.0018 µM; k2'' [12]: 0.17 min⁻¹; k2' [13]: 0.17 min⁻¹; k2'' [14]: 0.12 min⁻¹; Ki'' [15]: 0.02 µM |
| O=c1[nH]c(=O)n([C@H]2C[C@H](O)[C@@H](CO)O2)cc1F (stereo in doubt) [FLOXURIDINE] | 0.02 | 0.009 | 0.015 | – | – | – | – | – | – | 3.2 | 0.025 | 0.5 | 0.6 | 1 | – | – | – | – | – | – |
| O=c1[nH]c(=S)n([C@H]2C[C@H](O)[C@@H](CO)O2)cc1F | – | – | – | 4.5 | 1 | 1.4 | – | – | – | – | – | – | – | – | 5 | 2 | 4 | 7 | 4 | – |

The next lines start with results.

| IC50 (L5178Y [16]; l5178y) [µM] | IC50 (L5178Y [17]; l5178y) [µM] | IC50 (L5178Y [20]; l5178y) [µM] | IC50 (L5178Y [16]; Mus musculus, L5178Y) [µM] | IC50 (L5178Y [17]; Mus musculus, L5178Y) [µM] | IC50 (L5178Y [20]; Mus musculus, L5178Y) [µM] | SMILES | Ki'' [1] [µM] | k2' [7] [min⁻¹] | Ki' [8] [µM] | IC50 (NIH3T3 [18]; nih3t3) [µM] | IC50 (L5178Y [19]; l5178y) [µM] | IC50 (NIH3T3 [21]; nih3t3) [µM] | IC50 (NIH3T3 [22]; nih3t3) [µM] | IC50 (NIH3T3 [23]; nih3t3) [µM] | IC50 (NIH3T3 [18]; Mus musculus, NIH3T3) [µM] | IC50 (L5178Y [19]; Mus musculus, L5178Y) [µM] | IC50 (NIH3T3 [21]; Mus musculus, NIH3T3) [µM] | IC50 (NIH3T3 [22]; Mus musculus, NIH3T3) [µM] | IC50 (NIH3T3 [23]; Mus musculus, NIH3T3) [µM] | further results |
| --- | --- | --- | --- | --- | --- | --- | --- | --- | --- | --- | --- | --- | --- | --- | --- | --- | --- | --- | --- | --- |
| 5 | 2 | 4 | – | – | – | O=c1[nH]c(=O)n([C@H]2C[C@H](O)[C@@H](CO)O2)cc1F (stereo in doubt; 22) [FLOXURIDINE] | – | – | – | 250 | 5 | 60 | 60 | 150 | – | – | – | – | – | – |
| – | – | – | 20 | 10 | 10 | O=c1[nH]c(=S)n([C@@H]2C[C@H](O)[C@@H](CO)O2)cc1F | – | – | – | – | – | – | – | – | 2000 | 25 | 100 | 500 | 400 | – |
